Measured values reported in ChEMBL document CHEMBL6127153, “Hybrids of Membrane-Translocating Antimicrobial Peptides Show Enhanced Activity through Membrane Permeabilization” (ACS Med Chem Lett, 2024).
≈ marks a conversion by molar mass, not a printed value. Blank lines part the entries; values can stand above or below the compound they belong to. Calls of active or inactive are those of the source. No cut-off for these calls is given here.

Tests used:
Escherichia coli = test: Antibacterial activity against Escherichia coli Top10 assessed as inhibition of bacterial growth at 100 uM incubated for 3 hrs by radial diffusion assay; format: functional, organism-based
Bacillus subtilis [1] = test: Antibacterial activity against Bacillus subtilis ATCC6051 assessed as inhibition of bacterial growth at 100 uM incubated for 3 hrs by radial diffusion assay; format: functional, organism-based
Bacillus subtilis [2] = test: Antibacterial activity against Bacillus subtilis ATCC6051 assessed as inhibition of bacterial growth incubated for 1 hr followed by TSB addition and measured after 18 to 24 hrs by microbroth dilution assay; format: functional; details: time 19-25 hrs
HEK293 = test: Cytotoxicity against HEK293 cells assessed as effect on cell metabolic activity at 18.2 uM incubated for overnight by MTS assay; format: toxicity, cell-based; details: human, hek293, 18.2 µM
Cell membrane [3] = test: Induction of membrane translocation in Escherichia coli spheroplasts assessed as increase in fluorescence intensity using FITC-labeled compound by confocal microscopy; format: subcellular
Cell membrane [4] = test: Induction of membrane permeabilization in Escherichia coli assessed as increase in fluorescence intensity at 2 uM by PI staining based fluorescence spectrophotometric analysis; format: subcellular

Structure (SMILES): CC(C)C[C@H](NC(=O)CNC(=O)[C@H](C)NC(=O)[C@H](CCCNC(=N)N)NC(=O)[C@H](CO)NC(=O)[C@H](CO)NC(=O)[C@H](CCCNC(=N)N)NC(=O)[C@@H](N)[C@@H](C)O)C(=O)N[C@@H](CCC(N)=O)C(=O)N[C@@H](Cc1c[nH]c2ccccc12)C(=O)N1CCC[C@H]1C(=O)N[C@H](C(=O)NCC(=O)N[C@@H](CCCNC(=N)N)C(=O)N[C@H](C(=O)N[C@@H](Cc1cnc[nH]1)C(=O)N[C@@H](CCCNC(=N)N)C(=O)N[C@@H](CC(C)C)C(=O)N[C@@H](CC(C)C)C(=O)N[C@@H](CCCNC(=N)N)C(=O)N[C@@H](CCCCN)C(=O)O)C(C)C)C(C)C
Activity (Escherichia coli): Active
Activity (Bacillus subtilis [1]): Active
MIC (Bacillus subtilis [2]): 18.2 µM (≈ 45 µg/mL)
Activity (HEK293): Non-Toxic
Activity (Cell membrane [3]): Active
Activity (Cell membrane [4]): Active

Structure (SMILES): CC[C@H](C)[C@H](NC(=O)[C@H](CCCNC(=N)N)NC(=O)[C@@H](NC(=O)[C@H](CCCCN)NC(=O)[C@H](CCCCN)NC(=O)[C@H](CC(N)=O)NC(=O)[C@H](CC(=O)O)NC(=O)[C@H](CCCNC(=N)N)NC(=O)[C@H](C)N)[C@@H](C)O)C(=O)N[C@@H](Cc1c[nH]c2ccccc12)C(=O)N1CCC[C@H]1C(=O)N[C@@H](CCCNC(=N)N)C(=O)N[C@@H](Cc1cnc[nH]1)C(=O)N[C@@H](CC(C)C)C(=O)N[C@@H](CCC(N)=O)C(=O)N[C@@H](CC(C)C)C(=O)N[C@@H](C)C(=O)N[C@H](C(=O)N[C@@H](CCCNC(=N)N)C(=O)N[C@@H](CC(N)=O)C(=O)N[C@H](C(=O)N[C@@H](CCCNC(=N)N)C(=O)N[C@@H](CO)C(=O)N[C@@H](CO)C(=O)N[C@@H](CCCNC(=N)N)C(=O)N[C@@H](C)C(=O)NCC(=O)N[C@@H](CC(C)C)C(=O)N[C@@H](CCC(N)=O)C(=O)N[C@@H](Cc1c[nH]c2ccccc12)C(=O)N1CCC[C@H]1C(=O)N[C@H](C(=O)NCC(=O)N[C@@H](CCCNC(=N)N)C(=O)N[C@H](C(=O)N[C@@H](Cc1cnc[nH]1)C(=O)N[C@@H](CCCNC(=N)N)C(=O)N[C@@H](CC(C)C)C(=O)N[C@@H](CC(C)C)C(=O)N[C@@H](CCCNC(=N)N)C(=O)N[C@@H](CCCCN)C(=O)O)C(C)C)C(C)C)[C@@H](C)O)C(C)C
Activity (Escherichia coli): Active
Activity (Bacillus subtilis [1]): Active
Activity (HEK293): Non-Toxic
Activity (Cell membrane [3]): Active
Activity (Cell membrane [4]): Active

Structure (SMILES): CC[C@H](C)[C@H](NC(=O)[C@H](CCCNC(=N)N)NC(=O)[C@@H](NC(=O)[C@H](CCCCN)NC(=O)[C@H](CCCCN)NC(=O)[C@H](CC(N)=O)NC(=O)[C@H](CC(=O)O)NC(=O)[C@H](CCCNC(=N)N)NC(=O)[C@H](C)N)[C@@H](C)O)C(=O)N[C@@H](Cc1c[nH]c2ccccc12)C(=O)N1CCC[C@H]1C(=O)N[C@@H](CCCNC(=N)N)C(=O)N[C@@H](Cc1cnc[nH]1)C(=O)N[C@@H](CC(C)C)C(=O)N[C@@H](CCC(N)=O)C(=O)N[C@@H](CC(C)C)C(=O)N[C@@H](C)C(=O)N[C@H](C(=O)N[C@@H](CCCNC(=N)N)C(=O)N[C@@H](CC(N)=O)C(=O)N[C@@H](C)C(=O)N[C@H](C(=O)N[C@@H](CCCNC(=N)N)C(=O)N[C@@H](CO)C(=O)N[C@@H](CO)C(=O)N[C@@H](CCCNC(=N)N)C(=O)N[C@@H](C)C(=O)NCC(=O)N[C@@H](CC(C)C)C(=O)N[C@@H](CCC(N)=O)C(=O)N[C@@H](Cc1c[nH]c2ccccc12)C(=O)N1CCC[C@H]1C(=O)N[C@H](C(=O)NCC(=O)N[C@@H](CCCNC(=N)N)C(=O)N[C@H](C(=O)N[C@@H](Cc1cnc[nH]1)C(=O)N[C@@H](CCCNC(=N)N)C(=O)N[C@@H](CC(C)C)C(=O)N[C@@H](CC(C)C)C(=O)N[C@@H](CCCNC(=N)N)C(=O)N[C@@H](CCCCN)C(=O)O)C(C)C)C(C)C)[C@@H](C)O)C(C)C
Activity (Escherichia coli): Active
Activity (Bacillus subtilis [1]): Active
Activity (HEK293): Non-Toxic
Activity (Cell membrane [3]): Active
Activity (Cell membrane [4]): Active

Now from value to compound, other results behind:

Activity (Cell membrane [3]): Active
Activity (Cell membrane [4]): Active
Structure (SMILES): CC[C@H](C)[C@H](NC(=O)[C@H](CCCNC(=N)N)NC(=O)[C@@H](NC(=O)[C@H](CCCCN)NC(=O)[C@H](CCCCN)NC(=O)[C@H](CC(N)=O)NC(=O)[C@H](CC(=O)O)NC(=O)[C@H](CCCNC(=N)N)NC(=O)[C@H](C)NC(=O)[C@H](C)NC(=O)[C@H](CCCCN)NC(=O)[C@H](CCCNC(=N)N)NC(=O)[C@H](CC(C)C)NC(=O)[C@H](CC(C)C)NC(=O)[C@H](CCCNC(=N)N)NC(=O)[C@H](Cc1cnc[nH]1)NC(=O)[C@@H](NC(=O)[C@H](CCCNC(=N)N)NC(=O)CNC(=O)[C@@H](NC(=O)[C@@H]1CCCN1C(=O)[C@H](Cc1c[nH]c2ccccc12)NC(=O)[C@H](CCC(N)=O)NC(=O)[C@H](CC(C)C)NC(=O)CNC(=O)[C@H](C)NC(=O)[C@H](CCCNC(=N)N)NC(=O)[C@H](CO)NC(=O)[C@H](CO)NC(=O)[C@H](CCCNC(=N)N)NC(=O)[C@@H](N)[C@@H](C)O)C(C)C)C(C)C)[C@@H](C)O)C(=O)N[C@@H](Cc1c[nH]c2ccccc12)C(=O)N1CCC[C@H]1C(=O)N[C@@H](CCCNC(=N)N)C(=O)N[C@@H](Cc1cnc[nH]1)C(=O)N[C@@H](CC(C)C)C(=O)N[C@@H](CCC(N)=O)C(=O)N[C@@H](CC(C)C)C(=O)N[C@@H](C)C(=O)N[C@H](C(=O)N[C@@H](CCCNC(=N)N)C(=O)N[C@@H](CC(N)=O)C(=O)O)C(C)C
Activity (Escherichia coli): Active
Activity (Bacillus subtilis [1]): Active
Activity (HEK293): Non-Toxic

Activity (Cell membrane [3]): Active
Activity (Cell membrane [4]): Active
Structure (SMILES): CC[C@H](C)[C@H](NC(=O)[C@H](CCCNC(=N)N)NC(=O)[C@@H](NC(=O)[C@H](CCCCN)NC(=O)[C@H](CCCCN)NC(=O)[C@H](CC(N)=O)NC(=O)[C@H](CC(=O)O)NC(=O)[C@H](CCCNC(=N)N)NC(=O)[C@H](C)N)[C@@H](C)O)C(=O)N[C@@H](Cc1c[nH]c2ccccc12)C(=O)N1CCC[C@H]1C(=O)N[C@@H](CCCNC(=N)N)C(=O)N[C@@H](Cc1cnc[nH]1)C(=O)N[C@@H](CC(C)C)C(=O)N[C@@H](CCC(N)=O)C(=O)N[C@@H](CC(C)C)C(=O)N[C@@H](C)C(=O)N[C@H](C(=O)N[C@@H](CCCNC(=N)N)C(=O)N[C@@H](CC(N)=O)C(=O)N1CCC[C@H]1C(=O)N[C@H](C(=O)N[C@@H](CCCNC(=N)N)C(=O)N[C@@H](CO)C(=O)N[C@@H](CO)C(=O)N[C@@H](CCCNC(=N)N)C(=O)N[C@@H](C)C(=O)NCC(=O)N[C@@H](CC(C)C)C(=O)N[C@@H](CCC(N)=O)C(=O)N[C@@H](Cc1c[nH]c2ccccc12)C(=O)N1CCC[C@H]1C(=O)N[C@H](C(=O)NCC(=O)N[C@@H](CCCNC(=N)N)C(=O)N[C@H](C(=O)N[C@@H](Cc1cnc[nH]1)C(=O)N[C@@H](CCCNC(=N)N)C(=O)N[C@@H](CC(C)C)C(=O)N[C@@H](CC(C)C)C(=O)N[C@@H](CCCNC(=N)N)C(=O)N[C@@H](CCCCN)C(=O)O)C(C)C)C(C)C)[C@@H](C)O)C(C)C
Activity (Escherichia coli): Active
Activity (Bacillus subtilis [1]): Active
Activity (HEK293): Non-Toxic

Activity (Cell membrane [3]): Active
Activity (Cell membrane [4]): Active
Structure (SMILES): CC[C@H](C)[C@H](NC(=O)[C@H](CCCNC(=N)N)NC(=O)[C@@H](NC(=O)[C@H](CCCCN)NC(=O)[C@H](CCCCN)NC(=O)[C@H](CC(N)=O)NC(=O)[C@H](CC(=O)O)NC(=O)[C@H](CCCNC(=N)N)NC(=O)[C@H](C)NC(=O)[C@H](CCCCN)NC(=O)[C@H](CCCNC(=N)N)NC(=O)[C@H](CC(C)C)NC(=O)[C@H](CC(C)C)NC(=O)[C@H](CCCNC(=N)N)NC(=O)[C@H](Cc1cnc[nH]1)NC(=O)[C@@H](NC(=O)[C@H](CCCNC(=N)N)NC(=O)CNC(=O)[C@@H](NC(=O)[C@@H]1CCCN1C(=O)[C@H](Cc1c[nH]c2ccccc12)NC(=O)[C@H](CCC(N)=O)NC(=O)[C@H](CC(C)C)NC(=O)CNC(=O)[C@H](C)NC(=O)[C@H](CCCNC(=N)N)NC(=O)[C@H](CO)NC(=O)[C@H](CO)NC(=O)[C@H](CCCNC(=N)N)NC(=O)[C@@H](N)[C@@H](C)O)C(C)C)C(C)C)[C@@H](C)O)C(=O)N[C@@H](Cc1c[nH]c2ccccc12)C(=O)N1CCC[C@H]1C(=O)N[C@@H](CCCNC(=N)N)C(=O)N[C@@H](Cc1cnc[nH]1)C(=O)N[C@@H](CC(C)C)C(=O)N[C@@H](CCC(N)=O)C(=O)N[C@@H](CC(C)C)C(=O)N[C@@H](C)C(=O)N[C@H](C(=O)N[C@@H](CCCNC(=N)N)C(=O)N[C@@H](CC(N)=O)C(=O)O)C(C)C
Activity (Escherichia coli): Active
Activity (Bacillus subtilis [1]): Active
Activity (HEK293): Non-Toxic

Activity (Cell membrane [3]): inactive
Activity (Cell membrane [4]): Active
Structure (SMILES): CC[C@H](C)[C@H](NC(=O)[C@H](CCCNC(=N)N)NC(=O)[C@@H](NC(=O)[C@H](CCCCN)NC(=O)[C@H](CCCCN)NC(=O)[C@H](CC(N)=O)NC(=O)[C@H](CC(=O)O)NC(=O)[C@H](CCCNC(=N)N)NC(=O)[C@H](C)NC(=O)[C@@H]1CCCN1C(=O)[C@H](CCCCN)NC(=O)[C@H](CCCNC(=N)N)NC(=O)[C@H](CC(C)C)NC(=O)[C@H](CC(C)C)NC(=O)[C@H](CCCNC(=N)N)NC(=O)[C@H](Cc1cnc[nH]1)NC(=O)[C@@H](NC(=O)[C@H](CCCNC(=N)N)NC(=O)CNC(=O)[C@@H](NC(=O)[C@@H]1CCCN1C(=O)[C@H](Cc1c[nH]c2ccccc12)NC(=O)[C@H](CCC(N)=O)NC(=O)[C@H](CC(C)C)NC(=O)CNC(=O)[C@H](C)NC(=O)[C@H](CCCNC(=N)N)NC(=O)[C@H](CO)NC(=O)[C@H](CO)NC(=O)[C@H](CCCNC(=N)N)NC(=O)[C@@H](N)[C@@H](C)O)C(C)C)C(C)C)[C@@H](C)O)C(=O)N[C@@H](Cc1c[nH]c2ccccc12)C(=O)N1CCC[C@H]1C(=O)N[C@@H](CCCNC(=N)N)C(=O)N[C@@H](Cc1cnc[nH]1)C(=O)N[C@@H](CC(C)C)C(=O)N[C@@H](CCC(N)=O)C(=O)N[C@@H](CC(C)C)C(=O)N[C@@H](C)C(=O)N[C@H](C(=O)N[C@@H](CCCNC(=N)N)C(=O)N[C@@H](CC(N)=O)C(=O)O)C(C)C
Activity (Escherichia coli): Active
Activity (Bacillus subtilis [1]): Active
Activity (HEK293): Non-Toxic
